Measurements taken from US20130269064A1, “INSECTICIDAL COMPOUNDS” (SYNGENTA PARTICIPATIONS AG, priority 2010, published 2013).

How the values were obtained:
Format in all cases: in vivo
Heliothis virescens = Heliothis virescens (tobacco budworm) egg/artificial diet test; conditions: 96 h, 200 ppm (concentration in well 18 ppm), eggs 0-24 h old on artificial diet, 4 days, egg mortality, larval mortality, growth regulation
Protocol: Heliothis virescens (Tobacco Budworm): Eggs (0-24 h old) were placed in 24-well microtiter plate on artificial diet and treated with test solutions at an application rate of 200 ppm (concentration in well 18 ppm) by pipetting. After an incubation period of 4 days, samples were checked for egg mortality, larval mortality and growth regulation.

Diabrotica balteata = Diabrotica balteata (corn root worm) artificial diet test; conditions: 120 h, 200 ppm (concentration in well 18 ppm), L2 larvae, 5 days, larval mortality and growth regulation
Protocol: Diabrotica balteata (Corn Root Worm): A 24-well microtiter plate (MTP) with artificial diet was treated with test solutions at an application rate of 200 ppm (concentration in well 18 ppm) by pipetting. After drying, the MTP's were infested with larvae (L2) (6-10 per well). After an incubation period of 5 days, samples were checked for larval mortality, and growth regulation.

Thrips tabaci = Thrips tabaci (onion thrips) sunflower leaf disc test; conditions: foliar, 168 h, 200 ppm sprayed on sunflower leaf discs, mixed ages, 7 days, mortality
Protocol: Thrips tabaci (Onion Thrips): Sunflower leaf discs were placed on agar in a 24-well microtiter plate and sprayed with test solutions at an application rate of 200 ppm. After drying, the leaf discs were infested with an […] population of mixed ages. After an incubation period of 7 days, samples were checked for mortality.

Tetranychus urticae = Tetranychus urticae (two-spotted spider mite) bean leaf disc test; conditions: foliar, 192 h, 200 ppm sprayed on bean leaf discs, mixed ages, 8 days, egg, larval and adult mortality
Source text: Tetranychus urticae (Two-Spotted Spider Mite): Bean leaf discs on agar in 24-well microtiter plates were sprayed with test solutions at an application rate of 200 ppm. After drying, the leaf discs are infested with mite populations of mixed ages. 8 days later, discs are checked for egg mortality, larval mortality, and adult mortality.

Spodoptera littoralis = Spodoptera littoralis (Egyptian cotton leafworm) cotton leaf disc test; conditions: foliar, 72 h, 200 ppm sprayed on cotton leaf discs, 5 L1 larvae, mortality, feeding behaviour, growth regulation 3 DAT
Source text: Spodoptera littoralis (Egyptian Cotton Leafworm): Cotton leaf discs were placed on agar in a 24-well microtiter plate and sprayed with test solutions at an application rate of 200 ppm. After drying, the leaf discs were infested with 5 L1 larvae. The samples were checked for mortality, feeding behaviour, and growth regulation 3 days after treatment (DAT).

Plutella xylostella = Plutella xylostella (diamond back moth) artificial diet test; conditions: 144 h, 200 ppm (concentration in well 18 ppm), L2 larvae, 6 days, larval mortality and growth regulation
Protocol: Plutella xylostella (Diamond Back Moth): A 24-well microtiter plate (MTP) with artificial diet was treated with test solutions at an application rate of 200 ppm (concentration in well 18 ppm) by pipetting. After drying, the MTP's were infested with L2 larvae (7-12 per well). After an incubation period of 6 days, samples were checked for larval mortality and growth regulation.

Measured: pest or weed control at 200 ppm

Cc1cc(C#N)ccc1C(=O)Nc1cc(C(=O)Nc2c(C(F)(F)F)c(C(F)(F)C(F)(F)F)nn2C)ccc1C#N [Compound A1, 3-(4-cyano-2-methyl-Benzoyl) amino-4-cyano-N-(2-methyl-5-pentafluoroethyl-4-trifluoromethyl-2H-pyrazol-3-yl)-benzamide]
≥ 80%: Heliothis virescens | Diabrotica balteata | Thrips tabaci | Tetranychus urticae

Cn1nc(C(F)(F)C(F)(F)F)c(C(F)(F)F)c1NC(=O)c1ccc(C#N)c(NC(=O)c2ccccc2)c1 [Compound A2]
not listed: Tetranychus urticae
≥ 80%: all other assays above

Cn1nc(C(F)(F)C(F)(F)F)c(C(F)(F)F)c1NC(=O)c1cccc(NC(=O)c2ccccc2)c1F [Compound B16]
≥ 80%: all assays above

Cn1nc(C(F)(F)C(F)(F)F)c(C(F)(F)F)c1NC(=O)c1cccc(NC(=O)c2ccccc2F)c1 [Compound D1]
not listed: Tetranychus urticae
≥ 80%: all other assays above

Cn1nc(C(F)(F)C(F)(F)F)c(C(F)(F)F)c1NC(=O)c1cccc(NC(=O)c2ccccc2Cl)c1 [Compound D3]
not listed: Tetranychus urticae
≥ 80%: all other assays above

Cn1nc(C(F)(F)C(F)(F)F)c(C(F)(F)F)c1NC(=O)c1cccc(NC(=O)c2cc(Cl)ccc2F)c1 [Compound D8]
≥ 80%: all assays above

Cn1nc(C(F)(F)C(F)(F)F)c(C(F)(F)F)c1NC(=O)c1cccc(NC(=O)c2ccc([N+](=O)[O-])cc2Cl)c1 [Compound D9]
≥ 80%: Diabrotica balteata | Thrips tabaci | Tetranychus urticae

Cn1nc(C(F)(F)C(F)(F)F)c(C(F)(F)F)c1NC(=O)c1cccc(NC(=O)c2ccc(C(F)(F)F)cc2)c1 [Compound D13]
not listed: Tetranychus urticae
≥ 80%: all other assays above

Cn1nc(C(F)(F)C(F)(F)F)c(C(F)(F)F)c1NC(=O)c1cccc(NC(=O)c2ccccc2)c1 [Compound D16]
≥ 80%: Spodoptera littoralis | Plutella xylostella | Diabrotica balteata | Thrips tabaci

Cn1nc(C(F)(F)C(F)(F)F)c(C(F)(F)F)c1NC(=O)c1cccc(NC(=O)c2ccc(F)cc2)c1 [Compound D17]
not listed: Heliothis virescens
≥ 80%: all other assays above

Cn1nc(C(F)(F)C(F)(F)F)c(C(F)(F)F)c1NC(=O)c1cccc(NC(=O)c2ccc(F)cc2Cl)c1 [Compound D19]
not listed: Heliothis virescens
≥ 80%: all other assays above

Cn1nc(C(F)(F)C(F)(F)F)c(C(F)(F)F)c1NC(=O)c1cccc(NC(=O)c2cccc(F)c2F)c1 [Compound D21]
not listed: Tetranychus urticae
≥ 80%: all other assays above

Cn1nc(C(F)(F)C(F)(F)F)c(C(F)(F)F)c1NC(=O)c1cccc(NC(=O)c2ccc(F)cc2F)c1 [Compound D22]
not listed: Tetranychus urticae
≥ 80%: all other assays above
